Values of other authors, collected in paper PMC5729432, “A Phase 1 study of ARQ 087, an oral pan-FGFR inhibitor in patients with advanced solid tumours” (British Journal of Cancer, 2017).
One block for each molecule: values may come before it.

Legend:
[1] = tested on: patients with advanced solid tumours; design: method as in Andre et al, 2013b; Saka et al, 2017; conditions: ref Andre et al, 2013b; Saka et al, 2017
[2] = tested on: patients; design: method as in Nogova et al, 2017; conditions: at the RP2D; ref Nogova et al, 2017
[3] = tested on: patients with advanced solid tumors; design: method as in Tabernero et al, 2015; conditions: ref Tabernero et al, 2015

SMILES: COc1cc(CCc2cc(NC(=O)c3ccc(N4CC(C)NC(C)C4)cc3)n[nH]2)cc(OC)c1 (stereo not shown) [AZD3547]
common treatment-related AEs [1]: fatigue, mucositis, nausea, CSR, and hyperphosphataemia

patients requiring dose adjustments or interruptions for hyperphosphataemia [2]: 50%
SMILES: CCN1CCN(c2ccc(Nc3cc(N(C)C(=O)Nc4c(Cl)c(OC)cc(OC)c4Cl)ncn3)cc2)CC1 [BGJ398]

dose interruptions for hyperphosphataemia [3]: 31% | dose modifications for hyperphosphataemia [3]: 8%
SMILES: COc1cc(OC)cc(N(CCNC(C)C)c2ccc3ncc(-c4cnn(C)c4)nc3c2)c1 [JNJ-42756493]
AE asthenia [3]: 55% | AE constipation [3]: 34% | AE decreased appetite [3]: 32% | AE dry mouth [3]: 45% | AE hyperphosphataemia [3]: 65% | AE nail toxicity [3]: 35%
